Reference: US20250026747A1, “COLIBACTIN DERIVATIVES AND METHODS OF TREATING, AMELIORATING, AND/OR PREVENTING CANCER” (priority 2021, published 2025)

Tested on: HeLa cells
Experiment: Cell cycle analysis (DNA content histograms) in HeLa cells
Assay type: cell-based, human
Conditions: >11 μM
Description: FIGS. 7A-7B evaluates the Colibactin 742 (4) and its linear precursor 9 recapitulate the clb phenotype. […] HeLa cells were treated with the linear precursor 9 (1-100 μM), colibactin 742 (4) (1-100 μM) or MMC (150 nM) for 4 h. The cells were then washed and incubated for 20 h before immunofluorescence imaging. Cells were considered positive when >5 FANCD2 or γH2AX foci formed. Means and standard deviations of results from at least three independent experiments are shown. FIG. 7B depicts the DNA content histograms upon treatment with colibactin 742 (4, 11 μM) or 9 (11 μM) quantification of the sub-population of the histograms.
DNA content histograms and quantification of the sub-population of the histograms.
It has also been reported that clb^+ bacteria induce cell cycle arrest at the G2/M phase and eventual mitotic catastrophe.

C[C@H]1CCC(CC(=O)NC2(C(=O)CC(=O)NCC(=O)c3csc(CCc4csc(CNC(=O)CC(=O)C5(NC(=O)CC6=N[C@@H](C)CC6)CC5)n4)n3)CC2)=N1 [compound 9]
cell cycle arrest at G2/M: accumulation of cells in G2
